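Step 1: Grow cells in 96-well plates. Step 2: Expose to compound for 48 hours at 5 concentrations. Step 3: Interpolate endpoints linearly; if unreached, use highest concentration. At the GI50, growth is halved.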 Activity calls are given as the source filed them. No stated cut-off is given here; in the data, active = GI50 up to about 1.1 µM and inactive = higher. Where only a bound is given, the exact number is not on record here.

Some test systems named below: 786-0; NCI-H522; LOX IMVI; HOP-92; SF-268; K562; OVCAR-3; A498; UACC-62; UACC-257; SR; SK-MEL-5; RXF 393; ACHN; NCI-H460; UO-31; Hs-578T; SW-620; BT-549; NCI-H23.
Common to all, as to assay: NCI tumour cell line growth inhibition, 48 h

With `C=C1CCC(O)C/C1=C/C=C1\CCCC2(C)C1CCC2C(C)CCCC(C)C` (stereo not given), the GI50 was 16.7 µM (inactive) in the assay with 786-0; 17.5 µM (inactive) in the assay with NCI-H522; 17.9 µM (inactive) in the assay with LOX IMVI; 17.7 µM (inactive) in the assay on HOP-92; 23 µM (inactive) in the assay on SF-268; 21.2 µM (inactive) with K562. For the same molecule, the GI50 was 18.5 µM (inactive) with OVCAR-3; 21.3 µM (inactive) with A498; 18.8 µM (inactive) in the assay with UACC-62; 17 µM (inactive) with UACC-257; 18.5 µM (inactive) in the assay on SR; 19.4 µM (inactive) with SK-MEL-5. Also, the GI50 with RXF 393 was 18.5 µM (inactive); with ACHN, 16 µM (inactive); in the assay on NCI-H460, 20.4 µM (inactive); in the assay with UO-31, 14.6 µM (inactive); in the assay with Hs-578T it was 17.6 µM (inactive); with SW-620, 16.7 µM (inactive). The GI50 is 19.5 µM (inactive) in the assay on BT-549 and 18.5 µM (inactive) in the assay with NCI-H23.

On to `C/N=C(N)/N=C(\N)Nc1cc2ccccc2c2ccccc12`, for which the GI50 was 12.4 µM (inactive) in the assay with 786-0; 13.1 µM (inactive) with NCI-H522; 13 µM (inactive) in the assay on LOX IMVI; 14.9 µM (inactive) in the assay with HOP-92; 13.4 µM (inactive) in the assay with SF-268; 19.1 µM (inactive) in the assay with K562. The GI50 was 16.7 µM (inactive) in the assay with OVCAR-3; 11.2 µM (inactive) in the assay on A498; 14.9 µM (inactive) in the assay with UACC-62; 16.7 µM (inactive) in the assay on UACC-257; 13.8 µM (inactive) in the assay with SR; 16.5 µM (inactive) with SK-MEL-5. Also, the GI50 with RXF 393 is 14.9 µM (inactive); in the assay with ACHN, 13.5 µM (inactive); with NCI-H460, 11.1 µM (inactive); in the assay with UO-31, 11.9 µM (inactive); in the assay on Hs-578T it was 16.9 µM (inactive); in the assay with SW-620, 16.6 µM (inactive). For the same molecule, the results for the GI50 with BT-549 and with NCI-H23 were 15.1 µM (inactive) and 17.1 µM (inactive), respectively.

Regarding `CC(C)CC[C@H](O)[C@@H](C)[C@H]1[C@@H](OC2OC(C)C(O)C(O)C2O)C[C@H]2[C@@H]3CC=C4C[C@@H](O)CC[C@]4(C)[C@H]3[C@@H](O)C[C@]12C` (stereo not given in full), the GI50 was 0.084 µM (active) in the assay with 786-0; 3.69 µM (inactive) with NCI-H522; 0.889 µM (active) in the assay with LOX IMVI; 0.312 µM (active) in the assay on HOP-92; 1.58 µM (inactive) in the assay with SF-268; 0.235 µM (active) with K562. Besides, the GI50 is > 100 µM (inactive) in the assay on OVCAR-3; 3.46 µM (inactive) in the assay with A498; 0.538 µM (active) in the assay on UACC-62; 1.12 µM (inactive) in the assay on UACC-257; 0.143 µM (active) with SR; 3.35 µM (inactive) in the assay with SK-MEL-5. The GI50 is 0.124 µM (active) with RXF 393; > 27.7 µM (inactive) with ACHN; 0.241 µM (active) in the assay on NCI-H460; 1.77 µM (inactive) in the assay on UO-31; 0.121 µM (active) in the assay with Hs-578T; 0.533 µM (active) with SW-620. The results for the GI50 in the assay on BT-549 and in the assay on NCI-H23 were 0.491 µM (active) and 8.49 µM (inactive), respectively.

For `O[C@@H]1C=C[C@]23CCN(Cc4cc5c(cc42)OCO5)[C@@H]3C1`, the GI50 in the assay with 786-0 is 56.8 µM (inactive); with NCI-H522 it was 82.4 µM (inactive); in the assay on LOX IMVI, 48.4 µM (inactive); with HOP-92, 65.6 µM (inactive); in the assay on SF-268, > 100 µM (inactive); in the assay on K562, > 100 µM (inactive). For the same molecule, the GI50 in the assay on OVCAR-3 was > 100 µM (inactive); in the assay on A498, > 100 µM (inactive); in the assay on UACC-62, > 100 µM (inactive); in the assay with UACC-257, 92 µM (inactive); in the assay on SR it was 67.8 µM (inactive); in the assay on SK-MEL-5, > 100 µM (inactive). For the same molecule, the GI50 was 20.8 µM (inactive) with RXF 393; 35.2 µM (inactive) in the assay on ACHN; 42.7 µM (inactive) in the assay on NCI-H460; 48.2 µM (inactive) in the assay with UO-31; > 100 µM (inactive) in the assay on Hs-578T; 49 µM (inactive) in the assay with SW-620. Also, the GI50 in the assay on BT-549 and in the assay on NCI-H23 was > 100 µM (inactive) throughout.

For `C[N+](C)(C)CC1CCCCCCCCCCC1=O` (stereo not given), the GI50 with 786-0, in the assay on NCI-H522, in the assay on LOX IMVI, in the assay on HOP-92, in the assay on SF-268 and in the assay with K562 was > 100 µM (inactive) each time. For the same molecule, the GI50 in the assay on OVCAR-3, with A498, in the assay with UACC-62, in the assay with UACC-257, in the assay on SR and in the assay on SK-MEL-5 was > 100 µM (inactive) throughout. The GI50 in the assay on RXF 393, with ACHN, in the assay with NCI-H460, with UO-31, in the assay with Hs-578T and in the assay with SW-620 was > 100 µM (inactive) throughout. Also, the GI50 in the assay with BT-549 and in the assay with NCI-H23 was > 100 µM (inactive) throughout.

With `O=C1/C(=C/c2ccc(O)cc2)CCCC1CN1CCCCC1` (stereo not given), the GI50 in the assay on 786-0 was 1.02 µM (active); in the assay on NCI-H522, 1.25 µM (inactive); in the assay on LOX IMVI it was 1.56 µM (inactive); in the assay on HOP-92, 1.78 µM (inactive); with SF-268, 3.44 µM (inactive); with K562 it was 1.42 µM (inactive). Moreover, the GI50 with OVCAR-3 is 4.41 µM (inactive); in the assay on A498, 6.84 µM (inactive); with UACC-62, 1.83 µM (inactive); with UACC-257, 2.52 µM (inactive); in the assay on SR it was 1.39 µM (inactive); in the assay on SK-MEL-5, 6.01 µM (inactive). In addition, the GI50 is 13.7 µM (inactive) in the assay with RXF 393; 1.73 µM (inactive) in the assay on ACHN; 14.3 µM (inactive) in the assay on NCI-H460; 2.51 µM (inactive) with UO-31; 3.71 µM (inactive) in the assay on Hs-578T; 1.88 µM (inactive) with SW-620. The GI50 was 2.55 µM (inactive) in the assay on BT-549 and 5.12 µM (inactive) in the assay with NCI-H23.

As to `COc1cc(NCCC2CCCCN2)c2ncccc2c1` (stereo not given), the GI50 with 786-0 is > 82 µM (inactive); in the assay on NCI-H522 it was 55.7 µM (inactive); with LOX IMVI it was 52.2 µM (inactive); with HOP-92, 60.8 µM (inactive); in the assay with SF-268, > 92.7 µM (inactive); with K562 it was > 44.2 µM (inactive). Further, the GI50 in the assay with OVCAR-3 is 4.63 µM (inactive); in the assay with A498 it was 53.2 µM (inactive); in the assay with UACC-62, 24.8 µM (inactive); in the assay on UACC-257 it was 19.4 µM (inactive); with SR, 27.3 µM (inactive); in the assay on SK-MEL-5, 25.1 µM (inactive). For the same molecule, the GI50 in the assay with RXF 393 was 22.2 µM (inactive); in the assay with ACHN it was > 100 µM (inactive); in the assay on NCI-H460 it was 39.7 µM (inactive); in the assay on UO-31 it was 57.1 µM (inactive); with Hs-578T, > 96.4 µM (inactive); in the assay on SW-620 it was > 70.6 µM (inactive). In addition, the GI50 in the assay with BT-549 and with NCI-H23 was > 100 µM (inactive) throughout.

The values are drawn from ChEMBL document CHEMBL1201862, “PubChem BioAssay data set” (2004).
